Drawing on US20250282794A1 (CURADEV PHARMA LTD, priority 2022, published 2025), this text covers IC50 for 25 compounds.

For the experiment, the target named is recombinant full length HPK-1 enzyme (Homo sapiens (Human), UniProt Q92918). Briefly: HPK-1 biochemical enzyme assay (ADP-Glo kinase inhibition). Conditions: recombinant full length HPK-1 6.8 nM, 10 μM ATP, 12.5 μM MBP, 30 mins at 25° C. Summed up:
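ADP-Glo readout of ADP formed after a 30 min, 25° C. reaction of 6.8 nM full-length HPK-1 with swine myelin basic protein (12.5 μM) and ATP (10 μM) in Tris pH 7.4 buffer with MgCl2, DTT and BSA. Ten compound concentrations tested; percent inhibition set against vehicle (0%) and no-enzyme (100%) controls gave IC50.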

Each structure is given as a SMILES string. pIC50: −log10 of the molar value.

Sequence of recombinant full length HPK-1 enzyme (Q92918 whole entry, species assumed): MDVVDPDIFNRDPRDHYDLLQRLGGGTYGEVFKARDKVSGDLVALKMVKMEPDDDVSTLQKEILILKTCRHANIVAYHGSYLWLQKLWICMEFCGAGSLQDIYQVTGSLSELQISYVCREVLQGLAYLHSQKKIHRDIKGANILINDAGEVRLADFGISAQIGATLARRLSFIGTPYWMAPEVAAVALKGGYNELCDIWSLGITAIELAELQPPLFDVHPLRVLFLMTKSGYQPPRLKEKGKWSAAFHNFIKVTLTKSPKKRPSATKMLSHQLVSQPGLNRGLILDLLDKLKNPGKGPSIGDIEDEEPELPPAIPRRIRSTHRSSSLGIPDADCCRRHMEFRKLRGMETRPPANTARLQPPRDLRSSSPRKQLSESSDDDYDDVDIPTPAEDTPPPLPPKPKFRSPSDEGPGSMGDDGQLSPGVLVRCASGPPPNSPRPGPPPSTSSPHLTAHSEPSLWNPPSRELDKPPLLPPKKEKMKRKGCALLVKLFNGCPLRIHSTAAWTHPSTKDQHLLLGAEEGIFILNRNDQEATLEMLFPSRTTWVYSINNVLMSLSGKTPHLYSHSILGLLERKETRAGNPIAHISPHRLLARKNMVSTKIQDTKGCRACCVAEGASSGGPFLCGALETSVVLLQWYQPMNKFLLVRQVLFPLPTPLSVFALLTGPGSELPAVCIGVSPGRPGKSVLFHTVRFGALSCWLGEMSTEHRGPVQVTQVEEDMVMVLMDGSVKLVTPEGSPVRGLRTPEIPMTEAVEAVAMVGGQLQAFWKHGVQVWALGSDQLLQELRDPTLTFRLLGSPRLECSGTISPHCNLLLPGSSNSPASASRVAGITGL

Consider `COCCN1CCN(c2ccc(NC(=O)c3c(Nc4cnc5c(c4C)NCCO5)cc[nH]c3=O)cc2)C[C@@H]1C` [Example 346, (S)-N-(4-(4-(2-methoxyethyl)-3-methylpiperazin-1-yl)phenyl)-4-((8-methyl-2,3-dihydro-1H-pyrido[2,3-b][1,4]oxazin-7-yl)amino)-2-oxo-1,2-dihydropyridine-3-carboxamide], for which the pIC50 is no less than 8.00.
Under `COc1ncc(C(C)(C)O)c2cc(NC(=O)c3c(Nc4cnc5c(c4C)NCCO5)cc[nH]c3=O)ccc12` [Example 396, N-(4-(2-Hydroxypropan-2-yl)-1-methoxyisoquinolin-6-yl)-4-((8-methyl-2,3-dihydro-1H-pyrido[2,3-b][1,4]oxazin-7-yl)amino)-2-oxo-1,2-dihydropyridine-3-carboxamide] stands 6.00 to 7.00; under `Cc1c(Nc2cc[nH]c(=O)c2C(=O)Nc2ccc(N3CCN(CCO)CC3)cc2)cnc2c1NCC(C)O2` (stereo not shown) [Example 156, 4-((3,8-dimethyl-2,3-dihydro-1H-pyrido[2,3-b][1,4]oxazin-7-yl)amino)-N-(4-(4-(2-hydroxyethyl)piperazin-1-yl)phenyl)-2-oxo-1,2-dihydropyridine-3-carboxamide], 7.00 to 8.00.
In the case of `Cc1c(Nc2cc[nH]c(=O)c2C(=O)Nc2ccc(C3CCOCC3)cc2)cnc2c1NCCO2` [Example 133, 4-((8-methyl-2,3-dihydro-1H-pyrido[2,3-b][1,4]oxazin-7-yl)amino)-2-oxo-N-(4-(tetrahydro-2H-pyran-4-yl)phenyl)-1,2-dihydropyridine-3-carboxamide] it was 7.00 to 8.00; in that of `Cc1c(Nc2cc[nH]c(=O)c2C(=O)Nc2ccc(N3CCN(C(=O)C4CC(F)(F)C4)CC3)cc2)cnc2c1NCCO2` [Example 318, N-(4-(4-(3,3-difluorocyclobutane-1-carbonyl)piperazin-1-yl)phenyl)-4-((8-methyl-2,3-dihydro-1H-pyrido[2,3-b][1,4]oxazin-7-yl)amino)-2-oxo-1,2-dihydropyridine-3-carboxamide], no less than 8.00.
Turning to `Cc1c(Nc2cc[nH]c(=O)c2C(=O)Nc2ccc(N3CCN(c4nccs4)CC3)cc2)cnc2c1NCCO2` [Example 371, 4-((8-Methyl-2,3-dihydro-1H-pyrido[2,3-b][1,4]oxazin-7-yl)amino)-2-oxo-N-(4-(4-(thiazol-2-yl)piperazin-1-yl)phenyl)-1,2-dihydropyridine-3-carboxamide], the pIC50 was 7.00 to 8.00.
Turning to `Cc1c(Nc2cc[nH]c(=O)c2C(=O)Nc2ccc(N3CCN(C4CCC4)CC3)cc2)cnc2c1NCCO2` [Example 179, N-(4-(4-cyclobutylpiperazin-1-yl)phenyl)-4-((8-methyl-2,3-dihydro-1H-pyrido[2,3-b][1,4]oxazin-7-yl)amino)-2-oxo-1,2-dihydropyridine-3-carboxamide], the pIC50 was no less than 8.00.
Take `COCCC(=O)N1CCN(c2ccc(NC(=O)c3c(Nc4cnc5c(c4C)NCCO5)cc[nH]c3=O)cc2)CC1` [Example 285, N-(4-(4-(3-methoxypropanoyl)piperazin-1-yl)phenyl)-4-((8-methyl-2,3-dihydro-1H-pyrido[2,3-b][1,4]oxazin-7-yl)amino)-2-oxo-1,2-dihydropyridine-3-carboxamide]: the negative-log IC50 (pIC50) was no less than 8.00.
Take `CCN1CCN(c2c(F)cc(NC(=O)c3c(Nc4cnc5c(c4C)NCCO5)cc[nH]c3=O)cc2F)CC1` [Example 390, N-(4-(4-ethylpiperazin-1-yl)-3,5-difluorophenyl)-4-((8-methyl-2,3-dihydro-1H-pyrido[2,3-b][1,4]oxazin-7-yl)amino)-2-oxo-1,2-dihydropyridine-3-carboxamide]: the negative-log IC50 (pIC50) was 7.00 to 8.00.
Under `Cc1cc(NC(=O)c2c(Nc3cnc4c(c3C)NCC(C)O4)cc[nH]c2=O)ccc1N1CCN(C)CC1` (stereo not shown) [Example 200, 4-((3,8-dimethyl-2,3-dihydro-1H-pyrido[2,3-b][1,4]oxazin-7-yl)amino)-N-(3-methyl-4-(4-methylpiperazin-1-yl)phenyl)-2-oxo-1,2-dihydropyridine-3-carboxamide] stands no less than 8.00.
In the case of `Cc1c(Nc2cc[nH]c(=O)c2C(=O)Nc2ccc(N3CCC(C(N)=O)CC3)cc2)cnc2c1NCCO2` [Example 247, N-(4-(4-carbamoylpiperidin-1-yl)phenyl)-4-((8-methyl-2,3-dihydro-1H-pyrido[2,3-b][1,4]oxazin-7-yl)amino)-2-oxo-1,2-dihydropyridine-3-carboxamide] it was no less than 8.00.
In the case of `Cc1c(Nc2cc[nH]c(=O)c2C(=O)Nc2ccc(N3CCN(C(=O)c4ccnn4C)CC3)cc2)cnc2c1NCCO2` [Example 316, N-(4-(4-(1-methyl-1H-pyrazole-5-carbonyl)piperazin-1-yl)phenyl)-4-((8-methyl-2,3-dihydro-1H-pyrido[2,3-b][1,4]oxazin-7-yl)amino)-2-oxo-1,2-dihydropyridine-3-carboxamide], the negative-log IC50 (pIC50) is 7.00 to 8.00.
Consider `Cc1c(Nc2cc[nH]c(=O)c2C(=O)Nc2ccc(N3CCN(C(=O)C(C)C)CC3)cc2)cnc2c1NCC(C)O2` (stereo not shown) [Example 335, 4-((3,8-dimethyl-2,3-dihydro-1H-pyrido[2,3-b][1,4]oxazin-7-yl)amino)-N-(4-(4-isobutyrylpiperazin-1-yl)phenyl)-2-oxo-1,2-dihydropyridine-3-carboxamide], for which the pIC50 is 7.00 to 8.00.
In the case of `COC1(CN(C)C)CCN(c2ccc(NC(=O)c3c(Nc4cnc5c(c4C)NCCO5)cc[nH]c3=O)cc2)CC1` [Example 392, N-(4-(4-((dimethylamino)methyl)-4-methoxypiperidin-1-yl)phenyl)-4-((8-methyl-2,3-dihydro-1H-pyrido[2,3-b][1,4]oxazin-7-yl)amino)-2-oxo-1,2-dihydropyridine-3-carboxamide] it was no less than 8.00.
On to `Cc1c(Nc2cc[nH]c(=O)c2C(=O)Nc2ccc(N3CCN(C4CC4)CC3)c(F)c2)cnc2c1NCCO2` [Example 376, N-(4-(4-cyclopropylpiperazin-1-yl)-3-fluorophenyl)-4-((8-methyl-2,3-dihydro-1H-pyrido[2,3-b][1,4]oxazin-7-yl)amino)-2-oxo-1,2-dihydropyridine-3-carboxamide], for which the negative logarithm of the IC50 (pIC50) was no less than 8.00.
In the case of `Cc1c(Nc2cc[nH]c(=O)c2C(=O)Nc2ccc3sc(NC(=O)[C@@H]4C[C@@H]4F)nc3c2)cnc2c1NCCO2` [Example 297, N-(2-((1S,2S)-2-fluorocyclopropane-1-carboxamido)benzo[d]thiazol-5-yl)-4-((8-methyl-2,3-dihydro-1H-pyrido[2,3-b][1,4]oxazin-7-yl)amino)-2-oxo-1,2-dihydropyridine-3-carboxamide], the pIC50 was 6.00 to 7.00.
As for `Cc1c(Nc2cc[nH]c(=O)c2C(=O)Nc2ccc(C(N)=O)cc2)cnc2c1NCCO2` [Example 242, N-(4-carbamoylphenyl)-4-((8-methyl-2,3-dihydro-1H-pyrido[2,3-b][1,4]oxazin-7-yl)amino)-2-oxo-1,2-dihydropyridine-3-carboxamide], the pIC50 was 7.00 to 8.00.
On to `Cc1cc(N2CCN(c3ccc(NC(=O)c4c(Nc5cnc6c(c5C)NCCO6)cc[nH]c4=O)cc3)CC2)ccn1` [Example 340, 4-((8-methyl-2,3-dihydro-1H-pyrido[2,3-b][1,4]oxazin-7-yl)amino)-N-(4-(4-(2-methylpyridin-4-yl)piperazin-1-yl)phenyl)-2-oxo-1,2-dihydropyridine-3-carboxamide], for which the negative-log IC50 (pIC50) is no less than 8.00.
Turning to `Cc1c(Nc2cc[nH]c(=O)c2C(=O)Nc2ccc(N3CCN(C)CC3)c(-n3cnnc3)c2)cnc2c1NCCO2` [Example 211, 4-((8-methyl-2,3-dihydro-1H-pyrido[2,3-b][1,4]oxazin-7-yl)amino)-N-(4-(4-methylpiperazin-1-yl)-3-(4H-1,2,4-triazol-4-yl)phenyl)-2-oxo-1,2-dihydropyridine-3-carboxamide], the pIC50 is 7.00 to 8.00.
In the case of `Cc1c(Nc2cc[nH]c(=O)c2C(=O)Nc2ccc(N3CCN(C4CCCC4)CC3)cc2)cnc2c1NCCO2` [Example 147, N-(4-(4-cyclopentylpiperazin-1-yl)phenyl)-4-((8-methyl-2,3-dihydro-1H-pyrido[2,3-b][1,4]oxazin-7-yl)amino)-2-oxo-1,2-dihydropyridine-3-carboxamide] it was no less than 8.00.
Under `COCCN1CCC(c2ccc(NC(=O)c3c(Nc4cnc5c(c4C)NCCO5)cc[nH]c3=O)cc2)CC1` [Example 202, N-(4-(1-(2-methoxyethyl)piperidin-4-yl)phenyl)-4-((8-methyl-2,3-dihydro-1H-pyrido[2,3-b][1,4]oxazin-7-yl)amino)-2-oxo-1,2-dihydropyridine-3-carboxamide] stands 7.00 to 8.00; under `CCC(=O)N1CCN(c2ccc(NC(=O)c3c(Nc4cnc5c(c4C)NCC(C)O5)cc[nH]c3=O)cc2Cl)CC1` (stereo not shown) [Example 313, N-(3-chloro-4-(4-propionylpiperazin-1-yl)phenyl)-4-((3,8-dimethyl-2,3-dihydro-1H-pyrido[2,3-b][1,4]oxazin-7-yl)amino)-2-oxo-1,2-dihydropyridine-3-carboxamide], 7.00 to 8.00.
`CCN1CCN(c2ccc(NC(=O)c3c(Nc4cnc5c(c4C)NCC(C)O5)cc[nH]c3=O)cc2F)CC1` (stereo not shown) [Example 386, 4-((3,8-dimethyl-2,3-dihydro-1H-pyrido[2,3-b][1,4]oxazin-7-yl)amino)-N-(4-(4-ethylpiperazin-1-yl)-3-fluorophenyl)-2-oxo-1,2-dihydropyridine-3-carboxamide]: the pIC50 was no less than 8.00.
For `Cc1c(Nc2cc[nH]c(=O)c2C(=O)Nc2ccc(N3CCN(C(=O)C4CC4)CC3)cc2)cnc2c1NCC(C)O2` (stereo not shown) [Example 372, N-(4-(4-(cyclopropanecarbonyl)piperazin-1-yl)phenyl)-4-((3,8-dimethyl-2,3-dihydro-1H-pyrido[2,3-b][1,4]oxazin-7-yl)amino)-2-oxo-1,2-dihydropyridine-3-carboxamide], the pIC50 is no less than 8.00.
`Cc1c(Nc2cc[nH]c(=O)c2C(=O)Nc2ccc(N3CCN(C(=O)C(C)(C)O)CC3)cc2)cnc2c1NCCO2` [Example 357, N-(4-(4-(2-hydroxy-2-methylpropanoyl)piperazin-1-yl)phenyl)-4-((8-methyl-2,3-dihydro-1H-pyrido[2,3-b][1,4]oxazin-7-yl)amino)-2-oxo-1,2-dihydropyridine-3-carboxamide]: the pIC50 was no less than 8.00.

As a reminder, the pIC50 is −log10 of the IC50, conventionally taken in molar units.
